The supplement of paper PMC6045584
± gives the standard deviation of the averaged measurements.

Legend:
[1] = compound: Cn1cc(C2=Nc3cc(NC(=O)C(N)C4CCCCC4)cc4c3C2=CNNC4=O)cn1; assay: area under dose-response curve of surviving fraction (unscaled, Aref=0) (surviving fraction x log10(nM)); higher = more resistant; settings: exposure time: 5 days; dose range 0.5-1000 nM
How it was run: (§1)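 Each tumour cell line was screened three times in 384-well plates, receiving eight inhibitor concentrations from 0.5 to 1000 nM for five days. CellTiter-Glo luminescence gave viability, normalised to DMSO-only wells. Using the drc R package, surviving fractions were fitted with 3-parameter logistic dose-response curves, and the unscaled activity area over log10 dose (Aref = 0) was taken as the area under the curve.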

AFATINIB [2] = compound: T1, CN(C)C/C=C/C(=O)Nc1cc2c(Nc3ccc(F)c(Cl)c3)ncnc2cc1O[C@H]1CCOC1 [AFATINIB]; assay: as above; settings: exposure time: 5 days; dose range 0.5-1000 nM
How it was run: as §1

TIOGUANINE [3] = compound: T2, Nc1nc2[nH]cnc2c(=S)[nH]1 [TIOGUANINE]; assay: as above; settings: exposure time: 5 days; dose range 0.5-1000 nM
How it was run: as §1

CANERTINIB [4] = compound: T3, C=CC(=O)Nc1cc2c(Nc3ccc(F)c(Cl)c3)ncnc2cc1OCCCN1CCOCC1 [CANERTINIB]; assay: as above; settings: exposure time: 5 days; dose range 0.5-1000 nM
How it was run: as §1

SNX-5422 [5] = compound: T4, CC1(C)CC(=O)c2c(C(F)(F)F)nn(-c3ccc(C(N)=O)c(N[C@H]4CC[C@H](OC(=O)CN)CC4)c3)c2C1 [SNX-5422]; assay: as above; settings: exposure time: 5 days; dose range 0.5-1000 nM
How it was run: as §1

SAPACITABINE [6] = compound: T5, CCCCCCCCCCCCCCCC(=O)Nc1ccn([C@@H]2O[C@H](CO)[C@@H](O)[C@@H]2C#N)c(=O)n1 [SAPACITABINE]; assay: as above; settings: exposure time: 5 days; dose range 0.5-1000 nM
How it was run: as §1

BI-2536 [7] = compound: T6, CC[C@@H]1C(=O)N(C)c2cnc(Nc3ccc(C(=O)NC4CCN(C)CC4)cc3OC)nc2N1C1CCCC1 [BI-2536]; assay: as above; settings: exposure time: 5 days; dose range 0.5-1000 nM
How it was run: as §1

MDV3100 [8] = compound: T7, CNC(=O)c1ccc(N2C(=S)N(c3ccc(C#N)c(C(F)(F)F)c3)C(=O)C2(C)C)cc1F [MDV3100]; assay: as above; settings: exposure time: 5 days; dose range 0.5-1000 nM
How it was run: as §1

[9] = compound: Cn1cc(C2=Nc3cc(NC(=O)C(N)C4CCCCC4)cc4c3C2=CNNC4=O)cn1; assay: surviving fraction relative to DMSO-only wells; higher = less growth inhibition; settings: exposure time: 5 days
How it was run: (§2)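 At 250–500 cells per well in 384-well plates, log-phase tumour cell lines were seeded and, 24 hours on, exposed continuously for five days to inhibitors at 0.5, 1, 5, 10, 50, 100, 500 and 1000 nM. Viability readout was CellTiter-Glo luminescence, reported as surviving fraction normalised to the median of DMSO-only wells.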

AFATINIB [10] = compound: T1, AFATINIB; assay: as above; settings: exposure time: 5 days
How it was run: as §2

TIOGUANINE [11] = compound: T2, TIOGUANINE; assay: as above; settings: exposure time: 5 days
How it was run: as §2

CANERTINIB [12] = compound: T3, CANERTINIB; assay: as above; settings: exposure time: 5 days
How it was run: as §2

SNX-5422 [13] = compound: T4, SNX-5422; assay: as above; settings: exposure time: 5 days
How it was run: as §2

SAPACITABINE [14] = compound: T5, SAPACITABINE; assay: as above; settings: exposure time: 5 days
How it was run: as §2

BI-2536 [15] = compound: T6, BI-2536; assay: as above; settings: exposure time: 5 days
How it was run: as §2

MDV3100 [16] = compound: T7, MDV3100; assay: as above; settings: exposure time: 5 days
How it was run: as §2

Test System: SUM44 BREAST
- area under dose-response curve [1]: 1.84
- area under dose-response curve (AFATINIB [2]): 3.18
- area under dose-response curve (TIOGUANINE [3]): 3.39
- area under dose-response curve (CANERTINIB [4]): 2.78
- area under dose-response curve (SNX-5422 [5]): 2.47
- area under dose-response curve (SAPACITABINE [6]): 2.51
- area under dose-response curve (BI-2536 [7]): 0.689
- area under dose-response curve (MDV3100 [8]): 3.43
- surviving fraction ([9]; 0.5 nM): 0.896 ± 0.016
- surviving fraction ([9]; 1 nM): 0.936 ± 0.059
- surviving fraction ([9]; 5 nM): 0.905 ± 0.072
- surviving fraction ([9]; 10 nM): 0.594 ± 0.03
- surviving fraction ([9]; 50 nM): 0.349 ± 0.028
- surviving fraction ([9]; 100 nM): 0.239 ± 0.0068
- surviving fraction ([9]; 500 nM): 0.232 ± 0.017
- surviving fraction ([9]; 1000 nM): 0.301 ± 0.015
- surviving fraction (AFATINIB [10]; 0.5 nM): 1.04 ± 0.053
- surviving fraction (AFATINIB [10]; 1 nM): 1 ± 0.054
- surviving fraction (AFATINIB [10]; 5 nM): 1.01 ± 0.023
- surviving fraction (AFATINIB [10]; 10 nM): 0.995 ± 0.077
- surviving fraction (AFATINIB [10]; 50 nM): 1.07 ± 0.027
- surviving fraction (AFATINIB [10]; 100 nM): 1.03 ± 0.022
- surviving fraction (AFATINIB [10]; 500 nM): 0.859 ± 0.034
- surviving fraction (AFATINIB [10]; 1000 nM): 0.448 ± 0.047
- surviving fraction (TIOGUANINE [11]; 0.5 nM): 0.946 ± 0.03
- surviving fraction (TIOGUANINE [11]; 1 nM): 0.992 ± 0.046
- surviving fraction (TIOGUANINE [11]; 5 nM): 1.04 ± 0.035
- surviving fraction (TIOGUANINE [11]; 10 nM): 1.04 ± 0.028
- surviving fraction (TIOGUANINE [11]; 50 nM): 1.03 ± 0.011
- surviving fraction (TIOGUANINE [11]; 100 nM): 1.09 ± 0.086
- surviving fraction (TIOGUANINE [11]; 500 nM): 0.97 ± 0.091
- surviving fraction (TIOGUANINE [11]; 1000 nM): 1.055 ± 0.0085
- surviving fraction (CANERTINIB [12]; 0.5 nM): 0.778 ± 0.15
- surviving fraction (CANERTINIB [12]; 1 nM): 0.719 ± 0.22
- surviving fraction (CANERTINIB [12]; 5 nM): 0.797 ± 0.16
- surviving fraction (CANERTINIB [12]; 10 nM): 0.796 ± 0.18
- surviving fraction (CANERTINIB [12]; 50 nM): 1.05 ± 0.063
- surviving fraction (CANERTINIB [12]; 100 nM): 0.948 ± 0.16
- surviving fraction (CANERTINIB [12]; 500 nM): 0.84 ± 0.14
- surviving fraction (CANERTINIB [12]; 1000 nM): 0.778 ± 0.12
- surviving fraction (SNX-5422 [13]; 0.5 nM): 1.02 ± 0.035
- surviving fraction (SNX-5422 [13]; 1 nM): 0.987 ± 0.043
- surviving fraction (SNX-5422 [13]; 5 nM): 0.974 ± 0.013
- surviving fraction (SNX-5422 [13]; 10 nM): 0.867 ± 0.024
- surviving fraction (SNX-5422 [13]; 50 nM): 0.604 ± 0.015
- surviving fraction (SNX-5422 [13]; 100 nM): 0.589 ± 0.04
- surviving fraction (SNX-5422 [13]; 500 nM): 0.495 ± 0.041
- surviving fraction (SNX-5422 [13]; 1000 nM): 0.471 ± 0.048
- surviving fraction (SAPACITABINE [14]; 0.5 nM): 0.781 ± 0.19
- surviving fraction (SAPACITABINE [14]; 1 nM): 0.773 ± 0.18
- surviving fraction (SAPACITABINE [14]; 5 nM): 0.823 ± 0.14
- surviving fraction (SAPACITABINE [14]; 10 nM): 0.827 ± 0.1
- surviving fraction (SAPACITABINE [14]; 50 nM): 0.902 ± 0.12
- surviving fraction (SAPACITABINE [14]; 100 nM): 0.686 ± 0.13
- surviving fraction (SAPACITABINE [14]; 500 nM): 0.68 ± 0.093
- surviving fraction (SAPACITABINE [14]; 1000 nM): 0.611 ± 0.07
- surviving fraction (BI-2536 [15]; 0.5 nM): 0.797 ± 0.039
- surviving fraction (BI-2536 [15]; 1 nM): 0.378 ± 0.025
- surviving fraction (BI-2536 [15]; 5 nM): 0.163 ± 0.0069
- surviving fraction (BI-2536 [15]; 10 nM): 0.166 ± 0.022
- surviving fraction (BI-2536 [15]; 50 nM): 0.158 ± 0.0027
- surviving fraction (BI-2536 [15]; 100 nM): 0.154 ± 0.013
- surviving fraction (BI-2536 [15]; 500 nM): 0.162 ± 0.013
- surviving fraction (BI-2536 [15]; 1000 nM): 0.1503 ± 0.00058
- surviving fraction (MDV3100 [16]; 0.5 nM): 0.963 ± 0.096
- surviving fraction (MDV3100 [16]; 1 nM): 0.978 ± 0.08
- surviving fraction (MDV3100 [16]; 5 nM): 1.06 ± 0.081
- surviving fraction (MDV3100 [16]; 10 nM): 1.04 ± 0.058
- surviving fraction (MDV3100 [16]; 50 nM): 1.13 ± 0.13
- surviving fraction (MDV3100 [16]; 100 nM): 1.09 ± 0.1
- surviving fraction (MDV3100 [16]; 500 nM): 1.03 ± 0.071
- surviving fraction (MDV3100 [16]; 1000 nM): 1.01 ± 0.1
